Series [1] concerns velvetleaf. The experiment in a line: Reference test example 1: foliar treatment, herbicidal activity. The class given is in vivo. The settings on record: foliage spray of emulsifiable concentrate, 125 g/ha, examined 12 days after spraying, greenhouse. On the procedure: (§1) Cylindrical plastic pots, each of which has a diameter of 10 cm and a depth of 10 cm, were filled with soil, and then seeded with ivyleaf morning glory and velvetleaf. The test plants were grown in a greenhouse for 10 days. Then, each of the compounds 1, 2, 3, 6, 8, 12, 15, 16, 19, 21, 40, 59 and 76 was formulated into an emulsifiable concentrate according to Reference formulation example 2, and diluted with water containing a spreading agent. The dilution was uniformly sprayed over the foliage of the test plants with a sprayer at a rate of 1000 liters per hectare. After spraying, the test plants were grown in the greenhouse for 12 days, and the herbicidal activity was examined.

Series [2] concerns ivyleaf morning glory. The description is as above. The class given is in vivo. The note with it: foliage spray of emulsifiable concentrate, 125 g/ha, examined 12 days after spraying, greenhouse. On the procedure:
as §1

In series [3] the test system is velvetleaf. Description: Reference test example 2: soil surface treatment, herbicidal activity. The class given is in vivo. The note with it: soil surface spray of emulsifiable concentrate, 500 g/ha, examined 19 days after spraying, greenhouse. The source says:
(§2) Cylindrical plastic pots, each of which has a diameter of 10 cm and a depth of 10 cm, were filled with soil, and then seeded with ivyleaf morning glory and velvetleaf. Each of the compounds 1, 2, 3, 6, 8, 12, 15, 16, 19, 21, 40, 59 and 76 was formulated into an emulsifiable concentrate according to Reference formulation example 2, and diluted with water. The dilution was uniformly sprayed over the soil surface with a sprayer at a rate of 1000 liters per hectare. After spraying, the test plants were grown in the greenhouse for 19 days, and the herbicidal activity was examined.

The test system of series [4] is ivyleaf morning glory. Described as above. The class given is in vivo. The settings on record: soil surface spray of emulsifiable concentrate, 500 g/ha, examined 19 days after spraying, greenhouse.
Source text: as §2

By melting point is commonly meant the temperature, or range, at which the solid turns liquid.

`Cn1c(C(F)(F)F)cc(=O)n(-c2cc(Oc3ccc[nH]c3=O)c(Cl)cc2F)c1=O` [Compound 76, 3-[2-chloro-4-fluoro-5-(3-methyl-2,6-dioxo-4-trifluoromethyl-1,2,3,6-tetrahydropyrimidin-1-yl)phenoxy]-1H-pyridin-2-one]: the melting point was determined as 180.8 °C. Besides, the “herbicidal activity (control of growth)” value in the series on velvetleaf [1] was “perfectly controlled the growth”. Moreover, the “herbicidal activity (control of growth)” value with ivyleaf morning glory [2] is given as “perfectly controlled the growth”. In the series on velvetleaf [3], the “herbicidal activity (control of growth)” value is “perfectly controlled the growth”. Further, the “herbicidal activity (control of growth)” value in the series with ivyleaf morning glory [4] is reported as “perfectly controlled the growth”.
Regarding `CCOC(=O)COc1ncccc1Oc1cc(-n2c(=O)cc(C(F)(F)F)n(C)c2=O)c(F)cc1Cl` [Compound 3, 3-[2-chloro-4-fluoro-5-(3-methyl-2,6-dioxo-4-trifluoromethyl-1,2,3,6-tetrahydropyrimidin-1-yl)phenoxy]-2-(ethoxycarbonylmethoxy)pyridine], the “herbicidal activity (control of growth)” value with velvetleaf [1], with ivyleaf morning glory [2], in the series on velvetleaf [3] and in the series on ivyleaf morning glory [4] was “perfectly controlled the growth” throughout.
Turning to `COC(=O)COc1ncccc1Oc1cc(-n2c(=O)cc(C(F)(F)F)n(C)c2=O)c(F)cc1Br` [Compound 21], the “herbicidal activity (control of growth)” value in the series on velvetleaf [1], in the series with ivyleaf morning glory [2], in the series on velvetleaf [3] and in the series on ivyleaf morning glory [4] was “perfectly controlled the growth” in each case.
As to `COC(=O)COc1ncccc1Oc1cc(-n2c(=O)cc(C(F)(F)F)n(C)c2=O)c(F)cc1C#N` [Compound 40], the “herbicidal activity (control of growth)” value in the series on velvetleaf [1], in the series on ivyleaf morning glory [2], in the series on velvetleaf [3] and in the series with ivyleaf morning glory [4] was “perfectly controlled the growth” each time.
On to `Cn1c(C(F)(F)F)cc(=O)n(-c2cc(Oc3cccnc3OCC(=O)O)c(Cl)cc2F)c1=O` [Compound 1], for which the “herbicidal activity (control of growth)” value with velvetleaf [1], in the series with ivyleaf morning glory [2], with velvetleaf [3] and in the series with ivyleaf morning glory [4] was “perfectly controlled the growth” throughout.
Consider `COC(=O)COc1ncccc1Oc1cc(-n2c(=O)cc(C(F)(F)F)n(C)c2=O)c(F)cc1Cl` [Compound 2, 3-[2-chloro-4-fluoro-5-(3-methyl-2,6-dioxo-4-trifluoromethyl-1,2,3,6-tetrahydropyrimidin-1-yl)phenoxy]-2-(methoxycarbonylmethoxy)pyridine], for which the “herbicidal activity (control of growth)” value with velvetleaf [1], in the series with ivyleaf morning glory [2], in the series on velvetleaf [3] and in the series on ivyleaf morning glory [4] was “perfectly controlled the growth” each time.
Consider `COC(=O)COc1ncccc1Oc1cc(-n2c(=O)cc(C(F)(F)F)n(C)c2=O)c(F)cc1[N+](=O)[O-]` [Compound 59], for which the “herbicidal activity (control of growth)” value in the series with velvetleaf [1], in the series with ivyleaf morning glory [2], in the series on velvetleaf [3] and in the series on ivyleaf morning glory [4] was “perfectly controlled the growth” in each case.

The record behind these values is patent publication US7223862B2, “Pyridone compounds useful for producing pyridine compounds” (Sumitomo Chemical Company, Limited, priority 2001, dated 2007).
